{
  "source": "patent US12582625B2",
  "about": "“Methods for treating neuroblastoma” (priority 2015, dated 2026)",
  "key": {"NB cells": {"tested_on": "NB cells", "conditions": "DFMO in the 50-150 μM range; cited from earlier work"}, "urinary polyamines": {"tested_on": "urinary polyamines", "experiment": "NMTRC 002: urinary polyamine levels during DFMO therapy", "assay_type": "in vivo, human", "protocol": "Urinary Polyamine Levels. Patients were consented for urine analysis in NMTRC 002. […] Polyamines with at least one free primary amine were quantified using reverse-phase high-performance liquid chromatography (HPLC) as previously described (Thompson et al., 2010). Urinary N^1,N^12-diacetylspermine (N^1,N^12-Ac2Spm or DAS) was determined using the auto DAS reagent kit (Alfresa Pharma Co., Osaka, Japan), according to the manufacturer's instructions. The assay involves the specific binding between a bovine serum albumin-acetylspermine conjugate, as a DAS mimic, and colloidal gold antibody complexes, and has been previously described (Kawakita et al., 2011)."}, "[1]": {"tested_on": "high-risk neuroblastoma in complete remission", "experiment": "NMTRC003 phase II prevention trial: event free and overall survival", "assay_type": "in vivo, human", "excerpt": "Study Design. This was an open label, single agent, multicenter clinical trial for patients with high-risk neuroblastoma in complete remission at the completion of standard therapy. […] Prior to study entry, written informed consent was obtained from the subjects' parent(s) or guardian(s) and, when appropriate, written assent was obtained from subjects. ClinicalTrials.gov Identifiers: NCT01586260/NCT02395666.\nSubjects were required to have histologically confirmed International Neuroblastoma Staging System (INSS) high-risk neuroblastoma at the time of diagnosis. Subjects must have completed standard high-risk neuroblastoma (HRNB) therapy with 5-7 cycles of induction chemotherapy, surgical resection of primary tumor (if feasible), consolidative therapy with high-dose chemotherapy/autologous stem cell support and radiation therapy as indicated, and anti-GD2 antibody therapy with isotretinoin for up to 6 cycles. […] To be considered in complete remission, subjects had to have no radiographic evidence for persistent neuroblastoma by CT or MRI (and by metaiodobenzylguanidine (MIBG) in subjects whose tumors were originally MIBG avid), histologically negative bone marrow aspirate/biopsy, and normal urinary catecholamines as assessed by ratios of vanillylmandelic acid and homovanillic acid to creatinine. Subjects with residual masses or bone changes visible on CT or MRI could still be considered in CR if the lesions were negative by both MIBG and PET scans.\nDosing diaries were required to be completed for each cycle. […] The primary endpoint was Event Free Survival (EFS); secondary objectives included Overall Survival (OS) and safety. EFS was defined as the period from the first day of administration of study drug to the first occurrence of relapse or death, and OS was defined as the first day of administration of study drug until death; subjects without an event were censored at the time of last contact. Safety analysis was conducted on all subjects who received at least one dose of study drug, and included the frequency, grading, expectedness and attribution of all adverse events as well as dose interruptions, dose reductions, and treatment discontinuation.\nStatistical Analysis: Estimation and hypothesis testing based on survival data. Event-free and overall survival were estimated using the method of Kaplan and Meier (Meier, 1958) while standard errors were estimated using Greenwood's formula. […] However, NMTRC003 patients enrolled on ANBL0032 represent a subset of the ANBL0032 population, patients event-free at the start of NMTRC003 therapy (6-10 months after the start of ANBL0032 therapy) (Yu et al., 2010). Therefore, it was necessary to adjust the published ANBL0032 EFS using the definition of conditional probability for a direct comparison. […]"}},
  "note": "Several values for one entry are separate records, joined by “and”; a condition that tells them apart may be missing. Identical values can stand only once.",
  "data": [
    {"smiles": "NCCCC(N)(C(=O)O)C(F)F", "note": "(stereo not shown) [DFMO, 2,5-diamino-2-(difluoromethyl) pentanoic acid]", "values": [
      {"measurement": "killing of NB cells", "setting": "NB cells", "result": "do not kill NB cells"},
      {"measurement": "DAS increase from Cycle 1 Day 1, individual patients", "setting": "urinary polyamines; DFMO dose 500 mg/m^2 BID", "result": "Yes and No"},
      {"measurement": "UPA Cycle 1 Day 8 (sum of putrescine, N1AcSpd, N8AcSpd and DAS), individual patients", "setting": "urinary polyamines; DFMO dose 500 mg/m^2 BID", "result": "4.20 and 15.70 and 11.69"},
      {"measurement": "DAS increase from Cycle 1 Day 1, individual patients", "setting": "urinary polyamines; DFMO dose 750 mg/m^2 BID", "result": "No (2×) and Yes (3×)"},
      {"measurement": "UPA Cycle 1 Day 8 (sum of putrescine, N1AcSpd, N8AcSpd and DAS), individual patients", "setting": "urinary polyamines; DFMO dose 750 mg/m^2 BID", "result": "7.80 and 22.08 and 1.94 and 13.46"},
      {"measurement": "DAS increase from Cycle 1 Day 1, individual patients", "setting": "urinary polyamines; DFMO dose 1000 mg/m^2 BID", "result": "No and Yes (2×)"},
      {"measurement": "UPA Cycle 1 Day 8 (sum of putrescine, N1AcSpd, N8AcSpd and DAS), individual patients", "setting": "urinary polyamines; DFMO dose 1000 mg/m^2 BID", "result": "8.71 and 3.89 and 3.28"},
      {"measurement": "DAS increase from Cycle 1 Day 1, individual patients", "setting": "urinary polyamines; DFMO dose 1500 mg/m^2 BID", "result": "Yes (4×) and No (3×)"},
      {"measurement": "UPA Cycle 1 Day 8 (sum of putrescine, N1AcSpd, N8AcSpd and DAS), individual patients", "setting": "urinary polyamines; DFMO dose 1500 mg/m^2 BID", "result": "5.61 and 3.98 and 6.99 and 3.77 and 8.81 and 7.38 and 5.93"},
      {"measurement": "UPA (C1D1 − C8D1)/C1D1 × 100", "setting": "urinary polyamines; ODC SNP rs2302615 genotype Any A", "result": "0.66 ± 92.00"},
      {"measurement": "UPA (C1D1 − C8D1)/C1D1 × 100", "setting": "urinary polyamines; ODC SNP rs2302615 genotype GG", "result": "23.26 ± 35.59"},
      {"measurement": "UPA (C1D1 − C8D1)/C1D1 × 100", "setting": "urinary polyamines; ODC SNP rs2302616 genotype Any T", "result": "48.32 ± 18.24"},
      {"measurement": "UPA (C1D1 − C8D1)/C1D1 × 100", "setting": "urinary polyamines; ODC SNP rs2302616 genotype GG", "result": "−24.46 ± 83.67"},
      {"measurement": "increase of urinary polyamine levels from baseline", "setting": "urinary polyamines; after one week of DFMO therapy, GG genotype at rs2302616", "result": "~25", "unit": "%"},
      {"measurement": "decrease of urinary polyamine levels from baseline", "setting": "urinary polyamines; after one week of DFMO therapy, minor T allele at rs2302616", "result": "~50", "unit": "%"},
      {"measurement": "change in urinary N^1AcSpd between Day 8 and 15", "setting": "urinary polyamines; cycle 1, N=16 patients with complete data, P=1.000", "result": "No change"},
      {"measurement": "patients with increased urinary DAS", "setting": "urinary polyamines; disease progression within 100 days of therapy start", "result": "9/10"},
      {"measurement": "urinary N^1AcSpd contents", "setting": "urinary polyamines; first two weeks of treatment, population as a whole", "result": "reduced"},
      {"measurement": "average decrease of urinary polyamines from baseline", "setting": "urinary polyamines; patients with disease progression after 100 days from start of therapy", "result": "1.57±3.37", "unit": "μmol/g Creatinine"},
      {"measurement": "average increase of total urinary polyamines (putrescine+N^1AcSpd+N^8AcSpd+DAS) from baseline", "setting": "urinary polyamines; patients with disease progression less than 100 days after start of therapy", "result": "6.56±16.29", "unit": "μmol/g Creatinine"},
      {"measurement": "patients with increased urinary DAS", "setting": "urinary polyamines; progression free up to 100 days", "result": "1/7"},
      {"measurement": "subjects who have relapsed to date", "setting": "[1]; ITT population (91)", "result": 6},
      {"measurement": "relapses after completion of DFMO therapy (all 27 cycles)", "setting": "[1]; follow up of up to 3.5 years", "result": "no late relapses and None"},
      {"measurement": "outcome of subjects with Curie score greater than 0 prior to immunotherapy", "setting": "[1]; n=4 of 52 with known Curie score, ANBL0032 followed by DFMO", "result": "remain in remission"},
      {"measurement": "2-year event free survival (EFS)", "setting": "[1]; subjects previously enrolled on ANBL0032 (n=74)", "result": "95% (±3%) and 95% (+/−3%)"}
    ]}
  ]
}
